Measurements from US7084136B2, “Drug composition antagonistic to both PGD2/TXA2 receptors” (Shionogi & Co., Ltd., priority 2000, dated 2006).
Like-named read-outs stand apart in the source and are kept apart here.

Columns and labels:
TXA2 receptor = target: T1, TXA2 receptor (Homo sapiens, UniProt P21731); assay: Binding activity to TXA2 receptor ([3H](+)-S-145 sodium salt, human platelet membrane fraction)
T1 construct: The human platelet membrane fraction was prepared in accordance with Experiment 1 (1); from tissue; host or cells: human platelet membrane fraction from blood of healthy volunteers
T1 sequence (P21731 1-343): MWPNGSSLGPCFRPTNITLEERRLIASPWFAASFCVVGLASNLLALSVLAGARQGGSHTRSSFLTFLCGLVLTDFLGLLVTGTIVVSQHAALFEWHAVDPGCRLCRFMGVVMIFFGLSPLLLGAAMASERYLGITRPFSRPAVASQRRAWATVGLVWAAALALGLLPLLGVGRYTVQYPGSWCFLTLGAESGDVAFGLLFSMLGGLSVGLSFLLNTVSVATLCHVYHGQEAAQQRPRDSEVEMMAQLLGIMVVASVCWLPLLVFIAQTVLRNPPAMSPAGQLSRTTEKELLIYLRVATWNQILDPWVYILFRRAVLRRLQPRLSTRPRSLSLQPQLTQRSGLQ
Experimental: Experiment 2 Binding Activity to TXA2 Receptor
(§1) (1) Preparation of Human Platelet Membrane Fraction
The human platelet membrane fraction was prepared in accordance with Experiment 1 (1).
(2) Binding to TXA2 Receptor
To a binding-reaction solution (50 mM Tris/HCl, pH 7.4, 10 mM MgCl2) (0.2 ml) were added the human platelet membrane fraction (0.05 mg) and 2 nM Sodium [^3H](+)-(5Z)-7-[3-endo-[(phenylsulfonyl)amino]bicyclo[2.2.1]hept-2-exo-yl]heptenoate (Japanese Patent Publication (Kokoku) No.79060/1993, hereinafter referred to as (+)-S-145 sodium salt) (26.4 Ci/mmol), and the mixture was reacted at room temperature for 90 min. After the reaction, the resultant mixture was filtered through a glass fiber filter paper and washed several times with cooled physiological saline, then the radioactivity retained on the filter paper was measured. The specific-binding ratio was calculated by subtracting the non-specific binding ratio (the radio activity similarly determined in the presence of 10 μM (+)-S-145 sodium salt) from the total binding. The inhibitory activity of each compound was expressed as the concentration required for 50% inhibition (IC50), which was determined by depicting a substitution curve by plotting the binding ratio (%) in the presence of each compound, where the binding ratio in the absence of a test compound is 100%.

PGD2 receptor [1] = target: T2, PGD2 receptor (Homo sapiens, UniProt Q13258); assay: Binding activity to PGD2 receptor ([3H]PGD2, human platelet membrane fraction)
T2 construct: A suspension adjusted to contain the platelets at a final concentration of 5×10^8/ml was warmed at 37° C; endogenous in cells; host or cells: washed human platelets from a healthy volunteer
T2 sequence (Q13258 1-359): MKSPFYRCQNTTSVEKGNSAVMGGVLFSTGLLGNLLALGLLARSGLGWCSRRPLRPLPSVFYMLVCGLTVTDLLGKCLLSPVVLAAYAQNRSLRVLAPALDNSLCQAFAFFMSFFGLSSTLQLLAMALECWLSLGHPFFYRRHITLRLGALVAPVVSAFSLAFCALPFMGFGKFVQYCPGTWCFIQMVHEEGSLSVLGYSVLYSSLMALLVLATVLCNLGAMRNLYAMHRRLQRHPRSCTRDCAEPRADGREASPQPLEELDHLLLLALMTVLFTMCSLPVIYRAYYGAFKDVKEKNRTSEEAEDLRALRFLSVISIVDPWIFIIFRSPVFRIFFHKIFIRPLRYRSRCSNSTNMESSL
Experimental: Experiment 1 Binding Activity to PGD2 Receptor
as §1
Blood was collected using a plastic syringe containing 3.8% sodium citrate from the vein of healthy volunteers (adult male and female), then put into a plastic test tube and mixed by slow-reversion. The sample was then centrifuged at 1800 rpm, for 10 min at room temperature, and the supernatant containing PRP (platelet-rich plasma) was collected. The PRP was re-centrifuged at 2300 rpm, for 22 min at room temperature to obtain platelets. The platelets were homogenized using a homogenizer (Ultra-Turrax) followed by centrifugation 3 times at 20,000 rpm, 10 min at 4° C. to obtain a platelet membrane fraction. After protein determination, the membrane fraction was adjusted to 2 mg/ml and preserved in a refrigerator at −80° C. until using for the binding test.
(2) Binding to PGD2 Receptor
To a binding-reaction solution (50 mM Tris/HCl, pH 7.4, 5 mM MgCl2) (0.2 ml) were added the human platelet membrane fraction (0.1 mg) and 5 nM [^3H]PGD2 (115 Ci/mmol), and the mixture was reacted at 4° C. for 90 min. After the reaction, the mixture was filtered through a glass fiber filter paper and washed several times with cooled physiological saline, then the radioactivity retained on the filter paper was measured. The specific-binding ratio was calculated by subtracting the non-specific binding ratio which is the radioactivity similarly measured in the presence of 10 μM PGD2 from the total binding. The inhibitory activity of each compound was expressed as the concentration required for 50% inhibition (IC50), which was determined by depicting a substitution curve by plotting the binding ratio (%) in the presence of each compound, where the binding ratio in the absence of a test compound is 100%.

PGD2 receptor [2] = target: T2, PGD2 receptor; assay: Antagonistic activity against PGD2 receptor using human platelet (inhibition of PGD2-induced cAMP increase); format: cell-based
Experimental: Experiment 3 Evaluation of Antagonistic Activity Against PGD2 Receptor
Receptor Using Human Platelet
Peripheral blood was collected from a healthy volunteer using a syringe in which 1/9 volume of a citric acid/dextrose solution was previously added. The sample was subjected to centrifugation at 1200 rpm for 10 min to obtain the supernatant (PRP: platelet rich plasma). The resultant PRP was washed 3 times with a washing buffer and the number of platelets was counted with a micro cell counter. A suspension adjusted to contain the platelets at a final concentration of 5×10^8/ml was warmed at 37° C., then subjected to the pre-treatment with 3-isobutyl-1-methylxanthine (0.5 mM) for 5 min. To the suspension was added a test compound diluted at various concentration, and 10 minutes later, 0.1 μM PGD2 was added to induce the reaction 2 minutes later, hydrochloric acid was added to terminate the reaction. The platelet was destroyed with an ultrasonic homogenizer. After centrifugation, the cAMP in the supernatant was determined by radioimmunoassay. PGD2 receptor antagonism of a drug was evaluated as follows: the inhibition rate regarding cAMP increased by the addition of PGD2 was determined at each concentration, and the concentration of the drug required for 50% inhibition (IC50) was calculated.

[3] = human platelet membrane fraction, 2 nM [3H](+)-S-145 sodium salt, read-out: Binding activity to TXA2 receptor in human platelet membrane fraction IC50
[4] = human platelet, 0.1 μM PGD2, read-out: Inhibitory activity for the increase of cAMP caused by PGD2 in human platelet IC50
[5] = human platelet membrane fraction, read-out: Binding activity to PGD2 receptor in human platelet membrane fraction IC50

SMILES	IC50 (TXA2 receptor; comparative experiment in accordance with Experiment 2, read-out: Experiment 2 Antagonistic activity against TXA2 receptor IC50) [nM]	IC50 (PGD2 receptor [1]; comparative experiment in accordance with Experiment 1, read-out: Experiment 1 Antagonistic activity against PGD2 receptor IC50) [nM]	IC50 (PGD2 receptor [2]; comparative experiment in accordance with Experiment 3, read-out: Experiment 3 Antagonistic activity against PGD2 receptor IC50) [nM]	IC50 (TXA2 receptor; [3]) [nM]	IC50 (PGD2 receptor [2]; [4]) [nM]	IC50 (PGD2 receptor [1]; [5]) [nM]
CC1(C)[C@H]2C[C@H](C/C=C\CCCC(=O)O)[C@@H](NC(=O)c3csc4ccccc34)[C@@H]1C2 [B-1, reference compound]	370	22	30	–	–	–
O=C(O)CCCC[C@H]1[C@@H]2CC[C@@H](C2)[C@@H]1NC(=O)c1ccc(Sc2cccs2)s1 [I-5A-59a]	–	–	–	11	79	–
O=C(O)CCCCCC[C@H]1[C@@H]2CC[C@@H](C2)[C@@H]1NC(=O)c1ccc(Sc2cccs2)s1 [I-7A-59a]	–	–	–	9.8	12	–
O=C(O)COCCCC[C@H]1[C@@H]2CC[C@@H](C2)[C@@H]1NC(=O)c1ccc(Sc2cccs2)s1 [I-7M-59a]	–	–	–	40	24	–
O=C(O)CCC/C=C\C[C@H]1[C@@H]2CC[C@@H](C2)[C@@H]1NC(=O)c1ccc(S(=O)(=O)n2cccc2)cc1 [I-10]	–	–	–	92	1.8	1.6
O=C(O)CCC/C=C\C[C@H]1[C@@H]2CC[C@@H](C2)[C@@H]1NC(=O)c1ccc(Cc2ccccc2)s1 [I-31]	–	–	–	130	5.7	8.2
O=C(O)CCC/C=C\C[C@H]1[C@@H]2CC[C@@H](C2)[C@@H]1NC(=O)c1ccc(S(=O)(=O)c2cccs2)s1 [I-47]	–	–	–	6.2	7	4.1
O=C(O)CCC/C=C\C[C@H]1[C@@H]2CC[C@@H](C2)[C@@H]1NC(=O)c1ccc(Sc2cccs2)s1 [I-59]	–	–	–	16	4.6	0.41
O=C(O)CCC/C=C\C[C@H]1[C@@H]2CC[C@@H](C2)[C@@H]1NC(=O)c1ccc(SCc2cccs2)cc1 [I-66]	–	–	–	34	44	4.6
COc1ccccc1Cc1ccc(C(=O)N[C@H]2[C@H]3CC[C@H](C3)[C@@H]2CCCC/C=C/C(=O)O)s1 [I-71-126a]	–	–	–	61	21	–
Cc1ccc(C)n1S(=O)(=O)c1ccc(C(=O)N[C@H]2[C@H]3CC[C@H](C3)[C@@H]2CCCC/C=C/C(=O)O)s1 [I-71-270a]	–	–	–	0.9	26	–
O=C(O)CCC/C=C\C[C@H]1[C@@H]2CC[C@@H](C2)[C@@H]1NC(=O)c1ccc(Sc2ccsc2)s1 [I-79]	–	–	–	15	24	0.42
O=C(O)CCC/C=C\C[C@H]1[C@@H]2CC[C@@H](C2)[C@@H]1NC(=O)c1ccc(S(=O)(=O)c2ccsc2)s1 [I-80]	–	–	–	5.2	39	6.6
Cc1ccc(S(=O)(=O)c2ccc(C(=O)N[C@H]3[C@H]4CC[C@H](C4)[C@@H]3C/C=C\CCCC(=O)O)s2)s1 [I-82]	–	–	–	1.8	53	32
O=C(O)CCC/C=C\C[C@H]1[C@@H]2CC[C@@H](C2)[C@@H]1NC(=O)c1cc(Cc2cccs2)cs1 [I-88]	–	–	–	78	4.7	7.6
O=C(O)CCC/C=C\C[C@H]1[C@@H]2CC[C@@H](C2)[C@@H]1NC(=O)c1ccc(Cc2cccs2)s1 [I-93]	–	–	–	72	8.4	7
O=C(O)CCC/C=C\C[C@H]1[C@@H]2CC[C@@H](C2)[C@@H]1NC(=O)c1ccn(S(=O)(=O)c2cccs2)c1 [I-94]	–	–	–	83	10	1
O=C(O)CCC/C=C\C[C@H]1[C@@H]2CC[C@@H](C2)[C@@H]1NC(=O)c1ccc(CSc2cccs2)s1 [I-104]	–	–	–	39	1.6	0.1
O=C(O)CCC/C=C\C[C@H]1[C@@H]2CC[C@@H](C2)[C@@H]1NC(=O)c1ccc(SCc2cccs2)s1 [I-106]	–	–	–	13	9.3	13
O=C(O)CCC/C=C\C[C@H]1[C@@H]2CC[C@@H](C2)[C@@H]1NC(=O)c1ccc(S(=O)(=O)c2cccc(O)c2)s1 [I-117]	–	–	–	3.8	47	9.1
Cc1ccc(Cc2ccc(C(=O)N[C@H]3[C@H]4CC[C@H](C4)[C@@H]3C/C=C\CCCC(=O)O)s2)c(C)c1 [I-128]	–	–	–	48	10	20
Cc1ccc(Cc2ccc(C(=O)N[C@H]3[C@H]4CC[C@H](C4)[C@@H]3C/C=C\CCCC(=O)O)s2)s1 [I-129]	–	–	–	52	22	11
Cc1cccc(Cc2ccc(C(=O)N[C@H]3[C@H]4CC[C@H](C4)[C@@H]3C/C=C\CCCC(=O)O)s2)c1 [I-131]	–	–	–	19	41	44
Cc1cccc(SCc2ccc(C(=O)N[C@H]3[C@H]4CC[C@H](C4)[C@@H]3C/C=C\CCCC(=O)O)s2)c1 [I-132]	–	–	–	12	43	32
